Where two headings read alike, the source gives them in different places.
Key:
J774 cells = test: Cytotoxicity in mammalian cells (CellTiter-Glo), J774; assay type: cell-based; conditions: J774 murine macrophage line; 72 h drug incubation; mean of three experiments; read-out: mammalian cells CC50 (±SEM), J774
Procedure: (§1) Cell lines J774 and HepG2 were incubated with the drug for 72 h, the same time frame as employed to determine antimalarial activity. Cytotoxicity was evaluated in parallel with ATV as a representative parental drug, while doxorubicin was used as a standard cytotoxic drug. These experiments were also used to estimate the in vitro selectivity index (Table 2).
(§2) Doxorubicin chloridrate (Eurofarma, São Paulo, Brazil) was used as a positive control, while untreated cells were employed as negative controls. Bioluminescence readings were performed using a Filtermax F5Multi-Mode instrument (Molecular Devices, Sunnyvale, CA) using the CellTiter-Glo kit (Promega Corporation, Madison, USA). Three independent experiments were performed and CC50 values were calculated.

HepG2 cells = test: Cytotoxicity in mammalian cells (CellTiter-Glo), HepG2; assay type: cell-based; conditions: HepG2 human hepatocellular carcinoma line; 72 h drug incubation; mean of three experiments; read-out: mammalian cells CC50 (±SEM), HepG2
Procedure: as §1, §2

[1] = test system: P. falciparum 3D7 (CQ-susceptible strain); test: Antiplasmodial activity, asexual blood stages, HRP2 ELISA-based assay, 3D7 strain; assay type: cell-based, Plasmodium falciparum; conditions: for IC50: CQ-susceptible 3D7 strain, 72 h drug incubation, mean of five to seven experiments, read-out: P. falciparum IC50 (±SEM), 3D7
Source text: We determined the half-maximal inhibitory concentration (IC50) of the complexes against asexual blood stages of P. falciparum using CQ-susceptible and CQ-resistant strains (Table 2). […]. Two strains were selected for the tests: the CQ-susceptible 3D7 strain (isolated in West Africa; obtained from MR4, VA, USA), and the CQ-resistant W2 strain (isolated in Indochina; obtained from MR4, VA, USA). Both were maintained in culture in RPMI 1640 (Invitrogen, Paisley, UK), supplemented with 10% human serum (Abcys S.A. Paris, France), and buffered with 25 mM HEPES and 25 mM NaHCO3. Parasites were grown in A-positive human blood (Etablissement Français du Sang, Marseille, France) in controlled atmospheric conditions that consisted of 10% O2, 5% CO2, and 85% N2 at 37 °C with 95% humidity. […]
For in vitro isotopic microtests, 25 μL/well of antimalarial drug and 200 μL/well of parasitized red blood cell suspension (final parasitemia 0.5%, final hematocrit 1.5%) were distributed into 96-well plates. The plates were incubated for 72 h at 37 °C in 85% N2, 10% O2, 5% CO2. After freezing and then thawing, the hemolyzed cultures were homogenized by vortexing the plates. The drug susceptibility assay was performed using the HRP2 ELISA-based assay of the Malaria Ag Celisa kit (ref KM2159, Cellabs PTY LDT, Brookvale, Australia), as described previously.[72] […] […]. IC50 are expressed as means of at least 5 to 7 independent experiments.

[2] = test system: P. falciparum W2 (CQ-resistant strain); test: Antiplasmodial activity, asexual blood stages, HRP2 ELISA-based assay, W2 strain; assay type: cell-based, Plasmodium falciparum; conditions: CQ-resistant W2 strain, 72 h drug incubation, mean of five to seven experiments, read-out: P. falciparum IC50 (±SEM), W2
Procedure: The potency of the metal complexes to inhibit parasite growth was also examined in comparison with ATV.
The two strains were synchronized twice with sorbitol before use,[69] and clonality was verified every 15 days through PCR genotyping of the polymorphic genetic markers msp1 and msp2 and microsatellite loci.[70],[71] Compounds were resuspended in DMSO and then diluted in RPMI-DMSO (99v/1v) to obtain final concentrations ranging from 0.25 to 20000 nM.
After freezing and then thawing, the hemolyzed cultures were homogenized by vortexing the plates. The drug susceptibility assay was performed using the HRP2 ELISA-based assay of the Malaria Ag Celisa kit (ref KM2159, Cellabs PTY LDT, Brookvale, Australia), as described previously.[72]

[3] = Buffer–n-octanol distribution coefficient (shaking flask method)
Procedure: The distribution coefficient (Log D), a proxy parameter to estimate drug lipophilicity, was assessed for ATV and its metal complexes 1–3.
Buffer–n-octanol distribution coefficients were determined using the shaking flask method.[73] A UV–vis calibration curve was prepared in the 10–100 μM range in n-octanol. […] The concentration of complex in n-octanol was measured spectrophotometrically in order to determine values of D = [compound] (in n-octanol)/[compounds] (in buffer).[66],[67]

[4] = Chemical stability in solution (UV–vis, NMR, molar conductivity); assay type: physicochemical; conditions: for ΛM (DMSO) Day 1 / ΛM (DMSO) Day 2 / ΛM (DMSO) Day 3 / ΛM (DMSO) Day 7 / ΛM (DMSO) Day 15: molar conductivity in DMSO, stability; for stability by UV–vis in pure DMSO: primarily within 0–24 h
Procedure: Three distinct methodologies were used to investigate the in-solution stability of metal–ATV complexes 1–3, namely ultraviolet–visible (UV–vis) spectra, NMR, and molar conductivity. All experiments were performed in dimethyl sulfoxide (DMSO) and monitored for at least 72 h, a time frame which coincides with antimalarial drug treatment.
Furthermore, no significant changes in the ^1H NMR and ^31P{^1H} NMR spectra of the complexes were observed up to 72 h in comparison to freshly dissolved solution, denoted as time 0 h (Figures S20–S25). However, for the ^31P{^1H} NMR spectrum of the complex 3, it is observed an increasing intensity of the singlet at 28 ppm that can be attributed to oxidized PPh3, which may be leaving the coordination sphere, but this is relative low when compared with the signal of the complex at −1.76 ppm. Both molar conductivity and NMR data therefore indicate that the metal complexes remained intact in this condition. The observed […] in DMSO is likely related to the fact that the metal atoms are bonded to phosphine ligands, hindering any oxidation of the metal center.
As for the UV–vis analyses, these were used to assess the stability of metal–ATV complexes 1–3 in a solution of pure DMSO or DMSO mixed with aqueous media. To this end, three different conditions were employed in parallel experiments. […] The small change in absorbance observed can be attributed to dynamic equilibrium processes or structural reorganization of the metal complexes. These processes may include partial dissociation of ligands, reorientation of solvent molecules around the metal ion, or even conformational changes of the metal complexes. […] Highlighting that these conditions are the most similar to those employed in the determination of biological activity. Based on this, we concluded that in mixed aqueous/organic media, ATV and complexes 1–3 may undergo slight structural modifications, but no significant ligand exchange reactions occur, as previously observed in the stability studies by NMR.
For the stability studies by NMR spectroscopy, fresh solutions of the complexes in DMSO-d6 with concentrations of 22–25 mM were used. In the studies by UV–vis spectroscopy, three experimental conditions were employed: a) only DMSO, b) 90% DMSO/10% H2O, and c) 90% DMSO/10% RPMI 1640 (Roswell Park Memorial Institute) medium, with concentrations of the complexes 1-3 in 0.28–0.35 μM, 0.25–0.28 μM and 0.32–0.38 μM, respectively. Fresh solutions of the complexes dissolved in DMSO were always used and subsequently diluted with water or RPMI medium.

IC50 ([1]; Plasmodium falciparum) | IC50 ([2]; Plasmodium falciparum) | logD at 18 h ([3]; pH 5) | logD at 18 h ([3]; pH 7) | Molecule | CC50 (J774 cells) | CC50 (HepG2 cells) | IC50 [1] | IC50 [2] | log D pH 5 ([3]; pH 5) | log D pH 7 ([3]; pH 7) | ΛM (DMSO) Day 1 [4] | ΛM (DMSO) Day 2 [4] | ΛM (DMSO) Day 3 [4] | ΛM (DMSO) Day 7 [4] | ΛM (DMSO) Day 15 [4] | Selectivity index (S.I.) ([1]; CC50 (J774)/IC50(3D7)) | stability by UV–vis in 90% DMSO mixed with 10% water ([4]; 90% DMSO/10% H2O) | stability by UV–vis in pure DMSO [4]
 |  |  |  | [Ag(ATV)(PPh3)2] [Complex 1] | 9.5 ± 2.2 µM | 14.6 ± 0.9 µM | 30.5 ± 9.7 nM | 26.5 ± 7.8 nM | –2.12 | 0.08 | 12.81 Ohm-1cm2mol-1 | 13.90 Ohm-1cm2mol-1 | 16.14 Ohm-1cm2mol-1 | 13.70 Ohm-1cm2mol-1 | 12.17 Ohm-1cm2mol-1 |  |  | 
2.4 ± 1.2 nM | 2.1 ± 0.9 nM | -1.17 | -1.15 | O=C1C(O)=C([C@H]2CC[C@H](c3ccc(Cl)cc3)CC2)C(=O)c2ccccc21 [ATV, atovaquone] |  |  |  |  |  |  | 0.93 Ohm-1cm2mol-1 | 1.07 Ohm-1cm2mol-1 | 1.23 Ohm-1cm2mol-1 | 1.68 Ohm-1cm2mol-1 | 2.04 Ohm-1cm2mol-1 | 8250 |  | 
 |  |  |  | O=C1C([O][Cu]([PH](c2ccccc2)(c2ccccc2)c2ccccc2)[PH](c2ccccc2)(c2ccccc2)c2ccccc2)=C([C@H]2CC[C@H](c3ccc(Cl)cc3)CC2)C(=O)c2ccccc21 [Complex 3, [Cu(ATV)(PPh3)2]] | 36.1 ± 3.9 µM | 44.3 ± 7.7 µM | 30.7 ± 10.7 nM | 26.3 ± 6.9 nM | –5.18 | 1.06 | 3.71 Ohm-1cm2mol-1 | 3.80 Ohm-1cm2mol-1 | 3.47 Ohm-1cm2mol-1 | 3.14 Ohm-1cm2mol-1 | 3.05 Ohm-1cm2mol-1 |  | major change in the spectra | modifications were observed in the electronic spectra
 |  |  |  | [Au(ATV)(PPh3)]·2H2O [Complex 2] | 10.8 ± 3.4 µM | 8.9 ± 2.7 µM | 8.1 ± 2.7 nM | 5.2 ± 2.2 nM | –1.87 | –1.71 | 12.69 Ohm-1cm2mol-1 | 14.51 Ohm-1cm2mol-1 | 12.53 Ohm-1cm2mol-1 | 12.41 Ohm-1cm2mol-1 | 11.84 Ohm-1cm2mol-1 |  |  | modifications were observed in the electronic spectra
